The record followed here is BindingDB's records for doi:10.1021/acs.biochem.6b00338 (University of California Santa Cruz, 2016).

In this experiment the target is T1, Arachidonate 15-lipoxygenase (Pseudomonas aeruginosa, UniProt Q9I4G8).
T1 sequence (Q9I4G8 whole entry): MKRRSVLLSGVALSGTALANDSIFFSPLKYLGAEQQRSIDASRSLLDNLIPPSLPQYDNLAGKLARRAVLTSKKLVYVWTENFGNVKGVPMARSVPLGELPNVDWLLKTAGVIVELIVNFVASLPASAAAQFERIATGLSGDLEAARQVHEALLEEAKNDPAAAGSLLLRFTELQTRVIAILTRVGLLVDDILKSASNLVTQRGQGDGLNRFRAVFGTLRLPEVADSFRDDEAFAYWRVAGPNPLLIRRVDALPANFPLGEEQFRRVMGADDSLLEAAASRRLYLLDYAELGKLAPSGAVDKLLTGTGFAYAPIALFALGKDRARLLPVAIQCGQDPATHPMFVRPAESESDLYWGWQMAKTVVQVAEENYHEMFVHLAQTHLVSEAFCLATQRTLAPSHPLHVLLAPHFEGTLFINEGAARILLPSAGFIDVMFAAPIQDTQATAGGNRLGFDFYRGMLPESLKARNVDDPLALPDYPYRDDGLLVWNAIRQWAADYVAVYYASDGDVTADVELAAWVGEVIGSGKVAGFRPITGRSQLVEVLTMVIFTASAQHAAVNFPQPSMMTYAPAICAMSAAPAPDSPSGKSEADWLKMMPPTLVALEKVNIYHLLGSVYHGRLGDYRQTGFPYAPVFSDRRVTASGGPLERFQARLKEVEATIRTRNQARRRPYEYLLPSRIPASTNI
The experiment can be described thus: LoxA Selectivity Assay. The note with it: pH 7; 25 °C. The procedure: The one-point inhibition percentages were determined for human LOX inhibitors by following the formation of the conjugated diene product at 234 nm (ε = 25,000 M−1 cm−1) at an inhibitor concentration of 25 μM. All reaction mixtures were 2 mL in volume and constantly stirred using a magnetic stir bar at room temperature (22 °C) with 7 nM LoxA. Reactions were conducted in 25 mM HEPES buffer (pH 7.0), 0.01% Triton X-100, and 10 μM AA. The concentration of AA was quantitatively determined by allowing the enzymatic reaction to go to completion. Confirmed hitswere then screened against the human isozymes 5-LOX, 15-LOX-1, 15-LOX-2, and 12-LOX for specificity.

The IC50 is the midpoint of a concentration-inhibition curve. A low value points to higher potency.

The compound `CCCCCCc1ccc(Oc2ccccc2F)c(O)c1` [PT113] returned an IC50 of 1000 nM. This lies in the single-digit micromolar range. Consider `O=C(OCC#CCSc1nnc(-c2cccc3ccccc23)o1)c1ccccc1` [4-(5-(Naphthalen-1-yl)-1,3,4-oxadiazol-2-ylthio)but-2-ynyl benzoate], for which inhibition was half-maximal at 10 nM (IC50). As for `CCCCCCc1ccn(Cc2ccccc2C)c(=O)c1` [PT171], the midpoint of inhibition, the IC50, lay at 520 nM.

As for `CC(Cc1ccc(O)c(O)c1)C(C)Cc1ccc(O)c(O)c1` (stereo not given) [LOX inhibitor, N/A], the IC50 is 500 nM. The IC50 values of the last two compounds are within 1.5-fold of each other.

In the case of `CCCCCCc1ccc(Oc2ccccc2Cl)c(O)c1` [PT91], the IC50 came out at 2600 nM.
